Reference: the supplement of paper PMC4862054

Key:
Assay in all cases: normalised viability (% of control), CellTiter-Blue; higher = more viable cells (about 100 = DMSO control)
Conditions in all cases: incubation time: 72 h
CAL-148 = system: CAL-148
Description: (§1)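 DSRT, CellTiter-Blue viability, 72 h incubation. Signal is normalised to DMSO and benzethonium chloride controls. Value is the normalised response at dose 9.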

CAL-51 = system: CAL-51
Description: as §1

CAL-85-1 = system: CAL-85-1
Description: as §1

HDQ-P1 = system: HDQ-P1
Description: as §1

DU-4475 = system: DU-4475
Description: as §1

MDA-MB-453 = system: MDA-MB-453
Description: as §1

Compound	normalised viability (CAL-148) [%]	normalised viability (CAL-51) [%]	normalised viability (CAL-85-1) [%]	normalised viability (HDQ-P1) [%]	normalised viability (DU-4475) [%]	normalised viability (MDA-MB-453) [%]
C=CCN(/C=C1/C(=O)O[C@H](COC)[C@@]2(C)C1=C(O)C(=O)C1=C2[C@H](OC(C)=O)C[C@]2(C)C(=O)CC[C@@H]12)CC=C [PX-866] (10000 nM)	112	97.8	88.9	53.2	88	70.2
CC[C@H](CO)Nc1nc(NCc2ccccc2)c2ncn(C(C)C)c2n1 [Roscovitine] (10000 nM)	80.8	85	61.9	75.6	96.6	63.4
